Reference: patent US9079977B2, “Anti-trypanosomal peptides and uses thereof” (priority 2009, dated 2015)
Where a SMILES comes first, the peptide text is derived from it.

Tests used:
[1] = tested on: Human embryonic kidney cells (HEK)
[2] = Protocol: Liposome permeabilization assays. Liposomes were constructed by hydration of dried lipid films with 10 mM Hepes and 30 mM calcein to a final lipid concentration of 10 mg/ml. Resulting multilamellar liposomes were extruded through a 0.1 μm polycarbonate filter at temperatures above the transition point of the particular lipid mixture. Untapped calcein was removed by gel filtration (Sephacryl S-300 HR). Permeabilization of liposomes was monitored fluorimetrically with a Perkin Elmer LS-55 luminescent spectrophotometer. Assays were performed by diluting liposomes 1:1000 into the appropriate buffer and monitoring fluorescence when excited by 484 nm light (5 nm slit width) and reading the emission intensity at 513 nm (10 nm slit widths). The percentage calcein release was calculated relative to the 100% fluorescence intensity, achieved by the addition of 0.01% Triton X-100.
[3] = tested on: Bloodstream form T. b. brucei Lister 427; assay: Trypanosome killing assay, Example 2; format: cell-based, Trypanosoma brucei brucei; conditions: two hours at 37° C.
Protocol: Trypanosome killing assays. Bloodstream form T. b. brucei Lister 427 (MiTat 1.2), T. b. gambiense type 1 (Eliane strain) and T. b. rhodesiense KETR12482 were used in these studies. Trypanosome killing assays were performed as described previously (Hajduk et al., 1989, J Biol Chem; 264(9):5210-5217; Shiflett et al., 2005, J Biol Chem; 280(38):32578-32585; and Widener et al., 2007, PLoS Pathog; 3(9):1250-1261). Cultured trypanosomes (except for T. b. gambiense which were incubated at 1×10^6 cells/ml) were incubated in HMI-9 media (BSF) or SM media (PCF) at a density of 1×10^7 cells/ml containing either 10% heat inactivated fetal bovine serum or bovine serum albumin and peptide or control reagents for two hours at 37° C. Killing of BSF trypanosomes was evaluated by phase-contrast microscopy. Procyclic form trypanosomes were stained with 0.1% trypan blue. Trypan blue staining was also used for some BSF assays to eliminate any possible discrepancy between the PCF and BSF assays. Trypan blue was added at the endpoint of each assay to avoid any toxic effects.

[4] = tested on: bloodstream form T. b. brucei (wild type 427); assay: Trypanosome lysis assay with Hpr-SP; format: cell-based, Trypanosoma brucei brucei; conditions: 8-80 μM peptide, 2 h, 37° C.
Protocol: Trypanosome lysis assays. Trypanosomes were cultured in the appropriate media and incubated at a cell density of 3×10^6 cells/ml with the addition of peptide from a 10 mg/ml stock in DMSO, or control reagents for 2 hours (h) at 37° C. Lysis of bloodstream form trypanosomes was evaluated by phase-contrast microscopy. Procyclic form trypanosomes were stained with 0.1% trypan blue. Trypan blue staining was also used for some bloodstream form assays to eliminate any possible discrepancy between the procyclic and bloodstream form assays.

BSF T. b. brucei [5] = assay: Trypanosome killing assay, Example 4; format: cell-based, Trypanosoma brucei brucei; conditions: two hour killing assay, 37° C.
Protocol: Trypanosome Killing Assays. Light microscopy based trypanosome killing assays were performed as previously described in detail (Harrington et al., 2010, J Biol Chem; 285(37):28659-66; Widener et al., 2007, PLoS Pathog; 3(9):1250-61; Shiflett et al., 2007, J Eukaryot Microbiol; 54(1):18-21; and Hajduk et al., 1989, J Biol Chem; 264(9):5210-7). Metacyclic T. b. brucei TREU 667 were obtained from dissection of the salivary glands of infected tsetse flies. Newly hatched Glossina morsitans morsitans (24-48 hours post eclosion) were fed defibrinated horse blood containing 2×10^6 ml^−1 trypanosomes and maintained at 25° C. in 75% relative humidity and fed maintenance blood meals three times per week. Following day 20-30, flies were harvested and salivary glands were dissected out and washed in HMI 9 media containing 10% fetal bovine serum. Metacyclic cells were collected via centrifugation and maintained in HMI 9 media with 10% fetal bovine serum at 37° C. in 5% CO2 until use. Killing assays were conducted with 1×10^4 cells/ml in HMI 9 media containing 10% fetal bovine serum. Trypanosoma vivax and T. congolense were grown from stabilites in donor ICR mouse (Harlan, United Kingdom). Parasites were harvested from mice by terminal exsanguination and passage of infected blood through a small anion exchange column. Cells were maintained in HMI 9 with 20% goat serum at 37° C. in 5% CO2 until use. Killing assays were performed with 1×10^7 cells/ml in HMI 9 media with either 20% goat serum, in the case of T. vivax and T congolense, and 10% fetal bovine serum, for T. b. brucei. Cells were incubated at 37° C. for 2 hours and dead parasites were scored visually. All were conducted in at least duplicate, and data points are the averages with standard deviations.

[6] = tested on: plasma membrane of live BSF T. b. brucei; assay: Anisotropy assays with DPH and TMA-DPH, Example 4; format: cell-based, Trypanosoma brucei brucei; conditions: 37° C.
Protocol: Anisotropy Assays. The plasma membrane rigidity of live T. b. brucei was determined by measuring the fluorescence depolarization of diphenyl-1,3,5-hexatriene p-toluenesulfonate (DPH) or 1-(4-trimethylammoniumphenyl)-6-diphenyl-1,3,5-hexatriene p-toluenesulfonate (TMA-DPH; Invitrogen T204). Cells were washed 3 times with and resuspended in PBS at a density of 3×10^6 cells/ml. The anisotropic probes were added to a final concentration of […] and allowed to intercalate into the cell membrane for one hour in the dark. Anisotropic values were acquired via the software function of a PerkinElmer Life Sciences LS55 spectrofluorometer. Samples were excited at 358 nm, and emission was read at 430 nm, both with 10-nm slit widths. Temperature was maintained at 37° C. by means of the PerkinElmer LS55 Biokinetics accessory. Data were corrected for light scattering with an unlabeled sample of cells, and anisotropy was calculated according to the equation r=(IVV−GIVH)/(IVV+2GIVH), where r is the anisotropy value, IVV is the emission intensity acquired with the excitation- and emission-polarizing filters set vertically, G is the instrument correction factor, and IVH is the emission intensity acquired with the excitation-polarizing filter set vertically and the emission-polarizing filter set horizontally. All assays were conducted at 37° C. […]

BSF T. b. brucei [7] = assay: Trypanosome motility by video microscopy, Example 4; format: cell-based, Trypanosoma brucei brucei; conditions: 40 μM peptide, 37° C.
Protocol: Trypanosome motility. All images and videos were acquired with an Axio Observer Z1 equipped with an AxioCam MRm controlled by AxioVision 4.6 software. Videos were acquired with live cells at a density of 1×10^7 cells/ml in HMI 9 media with 10% fetal bovine serum, incubated with 40 µM SHP-1 at 37° C. Videos were recorded at magnification 63× with 50-ms acquisition times. The motility of BSF trypanosomes was scored visually from video playback of trypanosomes scanned throughout 10 μl aliquots. Data is shown as the average of triplicate trials with standard deviations.

Compound | killing of BSF T. b. brucei [3] | killing of BSF T. brucei (trypanocidal activity) (BSF T. b. brucei [5]) | also measured
CC[C@H](C)[C@H](NC(=O)[C@@H](NC(=O)[C@H](C)NC(=O)CNC(=O)[C@H](CC(C)C)NC(=O)[C@H](CC(=O)O)NC(=O)[C@H](CO)NC(=O)[C@@H](N)CCSC)C(C)C)C(=O)N[C@@H](CO)C(=O)N[C@@H](CC(C)C)C(=O)N[C@@H](CC(C)C)C(=O)N[C@@H](CC(C)C)C(=O)N[C@@H](Cc1c[nH]c2ccccc12)C(=O)NCC(=O)N[C@@H](CCCNC(=N)N)C(=O)N[C@@H](CCC(N)=O)C(=O)N[C@@H](CC(C)C)C(=O)N[C@@H](Cc1ccccc1)C(=O)N[C@@H](C)C(=O)O [Hpr-SP, MSDLGAVISLLLWGRQLFA] (H-MSDLGAVISLLLWGRQLFA-OH; N-terminus and C-terminus assumed) | – | – | toxicity towards human embryonic kidney cells [1]: No toxicity was observed; permeabilization of DSPC liposomes (calcein leakage) ([2]; neutral or acidic pH): no permeabilizing activity at neutral or acidic pH; permeabilization of egg PC liposomes (calcein leakage) ([2]; robust at pH 6.8): readily permeabilized by nanomolar concentrations
AKLIALTLLGMGLALFRNHQS (amino acid sequence of small hydrophobic peptide -2 (SHP-2)) [Signal peptide of human paraoxonase-1 without the N-terminal methionine] | equivalent to SHP-1 | – | –
ERTEESWGRRFWRRGEAC (non-specific, hydrophilic peptide predicted from the N-terminus of the alternatively edited protein-1 from mitochondria of T. b. brucei) [NSP, Non-specific hydrophilic peptide predicted from the N-terminus of alternatively edited protein-1 of T. b. brucei mitochondria, reference compound] | exhibited no toxicity | – | killing (trypanolysis) of bloodstream form trypanosomes [4]: gave no trypanolysis
FHQIWAALLYFYGIIENSIY (derivative of SHP-3 having a leucine to glutamic acid substitution at position -5) [SHP-3ΔE] | – | does not | –
FHQIWAALLYFYGIIRNSIY (derivative of SHP-3 having a leucine to arginine substitution at position -5) [SHP-3ΔR] | – | confers trypanocidal activity | rigidity of the interfacial region of the plasma membrane (TMA-DPH) [6]: increased the rigidity of the interfacial region of the plasma membrane; motility phenotype (hyperactivation, constriction) (BSF T. b. brucei [7]): induce both initial hyperactivation and subsequent constriction
SDLGAVISLLWGRQLFA (derivative of SHP-1 having a single leucine deletion) [SHP-1-ΔL] | – | – | decrease in trypanocidal activity relative to SHP-1 [3]: five-fold
SDLGAVISWGRQLFA (derivative of SHP-1 having a deletion of C-terminal leucine in triplicate) [SHP-1-ΔLLL, Derivative of SHP-1 with deletion of C-terminal leucine triplicate] | complete lose of trypanosome killing activity | – | –
SDVISLLLWGRQLFA (derivative of SHP-1 having a deletion of the N-terminal leucine-glycine-alanine residues) [SHP-1-ΔLGA, Derivative of SHP-1 with a deletion of the N-terminal leucine-glycine-alanine residues] | complete lose of trypanosome killing activity | – | –
SRLGAVISLLLWGDQLFA (derivative of SHP-1 having an aspartic acid to arginine substitution at position 2 and an arginine to aspartic acid subsitution at position -5) [SHP-1-swap, SHP-1 with aspartic acid at position 2 and arginine at position −5 swapped] | – | loss of trypanocidal activity | –
